In patent US20070128217A1 (priority 2003, published 2007):

Tests used:
[1] = tested on: rabbit serum obtained by immunizing a rabbit with the SARS-CoV strain Frankfurt 1; type: binding; design: Binding of a rabbit serum to linear peptides / Binding of a rabbit serum to looped peptides / Rabbit serum linear peptides / Rabbit serum looped peptides / Binding of a rabbit serum to linear peptides of protein N of SARS-CoV Urbani (Rabbit serum linear peptides) / Binding of a rabbit serum to looped/cyclic peptides of protein N of SARS-CoV Urbani (Rabbit serum looped peptides): unit not given here
[2] = tested on: antibodies in sera from SARS patients (sera 1a, 1b, 2, 6, 37, 62, London, SARS-yellow, SARS-green); type: binding, human; design: Binding of serum 6 to linear peptides of protein X1 of SARS-CoV Urbani / Binding of serum 37 to linear peptides of protein X1 of SARS-CoV Urbani / Binding of serum 6 to looped/cyclic peptide (PEPSCAN-ELISA) / Binding of serum 37 to looped/cyclic peptide (PEPSCAN-ELISA) / Binding of serum 37 to looped/cyclic peptides of protein X1 of SARS-CoV Urbani / Binding of serum 6 to linear peptides of protein X2 / Binding of serum 37 to linear peptides of protein X2 / Binding of serum 37 to looped/cyclic peptides of protein X2 of SARS-CoV Urbani / Binding of serum 6 to linear peptides of protein M of SARS-CoV Urbani / Binding of serum 37 to linear peptides of protein M of SARS-CoV Urbani / Binding of serum 6 to looped/cyclic peptides of protein M of SARS-CoV Urbani / Binding of serum 37 to looped/cyclic peptides of protein M of SARS-CoV Urbani / Binding of serum 6 to linear peptides of protein X3 of SARS-CoV Urbani / Binding of serum 37 to linear peptides of protein X3 of SARS-CoV Urbani / Binding of serum 37 to looped/cyclic peptides of protein X3 of SARS-CoV Urbani / Binding of serum 6 to linear peptides of protein X4 of SARS-CoV Urbani / Binding of serum 37 to linear peptides of protein X4 of SARS-CoV Urbani / Binding of serum 37 to looped/cyclic peptides of protein X4 of SARS-CoV Urbani / Binding of serum 6 to linear peptides of protein X5 of SARS-CoV Urbani / Binding of serum 37 to linear peptides of protein X5 of SARS-CoV Urbani / Binding of serum 37 to looped/cyclic peptides of protein X5 of SARS-CoV Urbani / Binding of serum 6 to linear peptides of protein N of SARS-CoV Urbani / Binding of serum 37 to linear peptides of protein N of SARS-CoV Urbani / Binding of serum 6 to linear peptide (PEPSCAN-ELISA) / Binding of serum 1a to looped/cyclic peptides of protein N of SARS-CoV Urbani / Binding of serum 1b to looped/cyclic peptides of protein N of SARS-CoV Urbani / Binding of serum 2 to looped/cyclic peptides of protein N of SARS-CoV Urbani / Binding of serum 6 to looped/cyclic peptides of protein N of SARS-CoV Urbani / Binding of serum 37 to looped/cyclic peptides of protein N of SARS-CoV Urbani / Binding of serum 62 to looped/cyclic peptides of protein N of SARS-CoV Urbani / Binding of serum London to looped/cyclic peptides of protein N of SARS-CoV Urbani / Binding of serum SARS-green to looped/cyclic peptides of protein N of SARS-CoV Urbani: unit not given here
[3] = tested on: control sera (pooled serum of ten healthy LUMC hospital workers; commercial negative donor pooled serum from the Dutch bloodbank); type: binding, human; design: Binding of Control serum LUMC to linear peptides / Binding of Control serum Blood-bank to linear peptides / Binding of Control serum LUMC to looped peptides / Binding of Control Serum Blood-Bank to Looped peptides / Binding of Control serum LUMC to linear peptides of the protein M of SARS-CoV Urbani / Binding of Control serum Blood-bank to linear peptides of the protein M of SARS-CoV Urbani / Binding of Control serum LUMC to looped peptides of the protein M of SARS-CoV Urbani / Binding of Control Serum Blood-Bank to Looped peptides of the protein M of SARS-CoV Urbani: unit not given here

KFALTCTSTHFAFAC
Rabbit serum linear peptides [1]: 0.5 | Rabbit serum looped peptides [1]: 0.6 | Binding of serum 1a to linear peptides of protein X4 of SARS-CoV Urbani [2]: 0.8 | Binding of serum 1a to looped/cyclic peptides of protein X4 of SARS-CoV Urbani [2]: 1.0 | Binding of serum 1b to linear peptides of protein X4 of SARS-CoV Urbani [2]: 0.6 | Binding of serum 1b to looped/cyclic peptides of protein X4 of SARS-CoV Urbani [2]: 0.7 | Binding of serum 2 to linear peptides of protein X4 of SARS-CoV Urbani [2]: 0.5 | Binding of serum 2 to looped/cyclic peptides of protein X4 of SARS-CoV Urbani [2]: 0.9 | Binding of serum 6 to linear peptides of protein X4 of SARS-CoV Urbani [2]: 0.8 | Binding of serum 6 to looped/cyclic peptides of protein X4 of SARS-CoV Urbani [2]: 0.7 | Binding of serum 37 to linear peptides of protein X4 of SARS-CoV Urbani [2]: 0.8 | Binding of serum 37 to looped/cyclic peptides of protein X4 of SARS-CoV Urbani [2]: 0.7 | Binding of serum 62 to linear peptides of protein X4 of SARS-CoV Urbani [2]: 0.8 | Binding of serum 62 to looped/cyclic peptides of protein X4 of SARS-CoV Urbani [2]: 0.9 | Binding of serum London to linear peptides of protein X4 of SARS-CoV Urbani [2]: 0.8 | Binding of serum London to looped/cyclic peptides of protein X4 of SARS-CoV Urbani [2]: 0.4 | Binding of serum SARS-green to linear peptides of protein X4 of SARS-CoV Urbani [2]: 0.4 | Binding of serum SARS-green to looped/cyclic peptides of protein X4 of SARS-CoV Urbani [2]: 0.8 | Binding of serum SARS-yellow to linear peptides of protein X4 of SARS-CoV Urbani [2]: 0.6 | Binding of serum SARS-yellow to looped/cyclic peptides of protein X4 of SARS-CoV Urbani [2]: 0.8 | Binding of Control Serum Blood-Bank to Looped peptides [3]: 0.9 | Binding of Control serum Blood-bank to linear peptides [3]: 0.7 | Binding of Control serum LUMC to linear peptides [3]: 0.7 | Binding of Control serum LUMC to looped peptides [3]: 0.8

WNLDVIISSIVRQLF
Rabbit serum linear peptides [1]: 0.1 | Rabbit serum looped peptides [1]: 0.2 | Binding of serum 1a to linear peptides of protein X3 of SARS-CoV Urbani [2]: 0.7 | Binding of serum 1a to looped/cyclic peptides of protein X3 of SARS-CoV Urbani [2]: 0.5 | Binding of serum 1b to linear peptides of protein X3 of SARS-CoV Urbani [2]: 0.2 | Binding of serum 1b to looped/cyclic peptides of protein X3 of SARS-CoV Urbani [2]: 0.3 | Binding of serum 2 to linear peptides of protein X3 of SARS-CoV Urbani [2]: 0.4 | Binding of serum 2 to looped/cyclic peptides of protein X3 of SARS-CoV Urbani [2]: 0.4 | Binding of serum 6 to linear peptides of protein X3 of SARS-CoV Urbani [2]: 0.4 | Binding of serum 6 to looped/cyclic peptides of protein X3 of SARS-CoV Urbani [2]: 0.4 | Binding of serum 37 to linear peptides of protein X3 of SARS-CoV Urbani [2]: 0.6 | Binding of serum 37 to looped/cyclic peptides of protein X3 of SARS-CoV Urbani [2]: 0.4 | Binding of serum 62 to linear peptides of protein X3 of SARS-CoV Urbani [2]: 0.6 | Binding of serum 62 to looped/cyclic peptides of protein X3 of SARS-CoV Urbani [2]: 0.4 | Binding of serum London to linear peptides of protein X3 of SARS-CoV Urbani [2]: 0.5 | Binding of serum London to looped/cyclic peptides of protein X3 of SARS-CoV Urbani [2]: 0.2 | Binding of serum SARS-green to linear peptides of protein X3 of SARS-CoV Urbani [2]: 0.2 | Binding of serum SARS-green to looped/cyclic peptides of protein X3 of SARS-CoV Urbani [2]: 0.2 | Binding of serum SARS-yellow to linear peptides of protein X3 of SARS-CoV Urbani [2]: 0.2 | Binding of serum SARS-yellow to looped/cyclic peptides of protein X3 of SARS-CoV Urbani [2]: 0.5 | Binding of Control Serum Blood-Bank to Looped peptides of the protein X3 of SARS-CoV Urbani [3]: 0.8 | Binding of Control serum Blood-bank to linear peptides of the protein X3 of SARS-CoV Urbani [3]: 0.6 | Binding of Control serum LUMC to linear peptides of the protein X3 of SARS-CoV Urbani [3]: 0.3 | Binding of Control serum LUMC to looped peptides of the protein X3 of SARS-CoV Urbani [3]: 0.7
